Data reported in patent US7410974B2, “Halogenated Quinazolinyl nitrofurans as antibacterial agents” (Ulysses Pharmaceutical Products, Inc., priority 2003, dated 2008).
In brackets after ≈: the same amount, converted by molar mass. Like-named read-outs stand apart in the source and are kept apart here.

Experiments:
E. faecium ATCC 35667 = test: MIC broth microdilution (NCCLS); format: cell-based, Enterococcus faecium; conditions: Enterococcus faecium, ATCC35667, E. faecium ATCC 35667; read-out: MIC
Protocol: (§1) Minimal Inhibitory Concentration (MIC) Determination. Bacteria (primary strain panel, TABLE 1). Susceptibility tests were performed following the recommendations from the National Committee for Clinical Standards (NCCLS). The MICs were determined by a broth microdilution technique using a final volume of 100 μl of cation-adjusted Mueller Hinton Broth (MHBCA) and a bacterial inoculum of 10^5-10^6 Colony Forming Units (CFU)/ml. The inocula were verified and precisely determined by applying 10-μl drops of 10-fold dilutions onto Triptic Soy Agar plates. The CFU were counted after an incubation of 24 h at 35° C. Any experiment showing an inoculum that was more or less than 10^5-10^6 CFU/ml was rejected. Control antibiotics and test compounds were prepared at a concentration equivalent to 2-fold the highest desired final concentration. Compounds were then diluted directly in the 96-well microtiter plates by serial 2-fold dilutions using a multichannel pipette. Microtiter plates were incubated during 24 h at 35° C. and growth was recorded by using a microtiterplate reader at 650 nm as well as by visual observation. The MIC was defined as the lowest concentration of compound yielding no visible growth. […] Fastidious bacteria. The medium used for Listeria monocytogenes, Neisseria meningitidis, and Campylobacter jejuni was MHBCA containing 2% laked horse blood. The medium used for Haemophilus influenzae and Branhamella (Moraxella) catarrhalis was HTM as recommended by the NCCLS. Cultures of these fastidious bacteria were incubated at 35° C. in a 5% CO2 atmosphere. […] The medium used for Bacteroides fragilis was Wilkins Chalgren broth and growth was allowed under an anaerobic atmosphere at 35° C. for 48 hours.

C. jejuni ATCC 33291 = test: MIC broth microdilution (NCCLS), fastidious bacteria; format: cell-based; conditions: Campylobacter jejuni, ATCC33291
Protocol: as §1

[1] = test system: L. monocytogenes ATCC 13932; test: as above; format: cell-based; conditions: Listeria monocytogenes, ATCC13932, MHBCA with 2% laked horse blood, 5% CO2
Protocol: as §1

E. faecalis ATCC 29212 = test: MIC broth microdilution (NCCLS); format: cell-based, Enterococcus faecalis; conditions: Enterococcus faecalis, ATCC29212; E. faecalis ATCC 29212; read-out: MIC
Protocol: as §1

S. aureus ATCC 29213 = test: MIC broth microdilution (NCCLS); format: cell-based, Staphylococcus aureus; conditions: Staphylococcus aureus, ATCC29213; S. aureus ATCC 29213; read-out: MIC
Protocol: as §1

S. aureus MRSA COL = test: MIC broth microdilution (NCCLS); format: cell-based, Staphylococcus aureus; conditions: S. aureus MRSA COL
Protocol: as §1, with “hours. […]” for “hours.”

B. fragilis ATCC 25285 = test: MIC broth microdilution (NCCLS), anaerobic; format: cell-based; conditions: Bacteroides fragilis
Protocol: as §1

[2] = test system: S. epidermidis ATCC 12228; test: MIC broth microdilution (NCCLS); format: cell-based, Staphylococcus epidermidis; conditions: Staphylococcus epidermidis, ATCC12228; S. epidermidis ATCC 12228; read-out: MIC
Protocol: as §1

[3] = test system: S. saprophyticus ATCC 15305; test: MIC broth microdilution (NCCLS); format: cell-based, Staphylococcus saprophyticus; conditions: Staphylococcus saprophyticus, ATCC15305; S. saprophyticus ATCC 15305; read-out: MIC
Protocol: as §1

E. coli ATCC 25922 [4] = test: MIC broth microdilution (NCCLS); format: cell-based, Escherichia coli; conditions: Escherichia coli, ATCC25922, E. coli ATCC 25922 (Reference); read-out: MIC
Protocol: as §1

[5] = test system: S. saprophyticus ATCC 15305; test: Minimal Bactericidal Concentration (MBC); format: cell-based; conditions: Staphylococcus saprophyticus, ATCC15305; S. saprophyticus ATCC 15305; 99.9% killing; read-out: MBC
Protocol: (§2) Minimal Bactericidal Concentration (MBC). After the microtiter plates were read for the determination of the MIC, a 10-μl sample of each clear well (at least 5 wells without visible growth) was applied onto TSA plates for viable counts determination.
(§3) Petri dishes were incubated at 35° C. for exactly 24 h and bacterial colonies were counted.

E. coli ATCC 25922 [6] = test: Minimal Bactericidal Concentration (MBC); format: cell-based; conditions: Escherichia coli, ATCC25922, 99.9% killing
Protocol: as §2, §3

H. influenzae ATCC 49247 = test: MIC broth microdilution (NCCLS), fastidious bacteria; format: cell-based; conditions: Haemophilus influenzae, ATCC49247, HTM, 5% CO2
Protocol: as §1

H. influenzae ATCC 49766 = test: as above; format: cell-based; conditions: Haemophilus influenzae, ATCC49766, HTM, 5% CO2
Protocol: as §1

E. faecium VanA = test: MIC broth microdilution, antibiotic resistant strain panel; format: cell-based; conditions: Enterococcus faecium; multi-resistant E. faecium VanA; read-out: MIC
Protocol: as §1
(§4) Finally, compounds were also tested against populations of various clinical strains (antibiotic resistant strain panel, TABLE 1).

M. smegmatis ATCC 19420 = test: MIC broth microdilution (NCCLS), fastidious bacteria; format: cell-based, Mycobacterium smegmatis; conditions: Mycolicibacterium smegmatis, ATCC19420, read after 48 hours
Protocol: as §1

MRSA strain Sa253c = test: MIC broth microdilution, antibiotic resistant strain panel; format: cell-based, Staphylococcus aureus; conditions: Staphylococcus aureus
Protocol: as §1, §4

MRSA strain Sa249c = test: as above; format: cell-based, Staphylococcus aureus; conditions: Staphylococcus aureus; multi-resistant MRSA strain Sa249c; read-out: MIC
Protocol: as §1, §4

MRSA strain Sa211c = test: as above; format: cell-based, Staphylococcus aureus; conditions: Staphylococcus aureus; multi-resistant MRSA strain Sa211c; read-out: MIC
Protocol: as §1, §4

MRSA strain Sa228c = test: as above; format: cell-based, Staphylococcus aureus; conditions: Staphylococcus aureus; multi-resistant MRSA strain Sa228c; read-out: MIC
Protocol: as §1, §4

MRSA strain Sa224c = test: as above; format: cell-based, Staphylococcus aureus; conditions: Staphylococcus aureus; multi-resistant MRSA strain Sa224c; read-out: MIC
Protocol: as §1, §4

MRSA strain Sa234c = test: as above; format: cell-based, Staphylococcus aureus; conditions: Staphylococcus aureus; multi-resistant MRSA strain Sa234c; read-out: MIC
Protocol: as §1, §4

MRSA strain Sa220c = test: as above; format: cell-based, Staphylococcus aureus; conditions: Staphylococcus aureus; multi-resistant MRSA strain Sa220c; read-out: MIC
Protocol: as §1, §4

MRSA strain Sa212c = test: as above; format: cell-based, Staphylococcus aureus; conditions: Staphylococcus aureus; multi-resistant MRSA strain Sa212c; read-out: MIC
Protocol: as §1, §4

MRSA strain Sa248c = test: as above; format: cell-based, Staphylococcus aureus; conditions: Staphylococcus aureus; multi-resistant MRSA strain Sa248c; read-out: MIC
Protocol: as §1, §4

Solubility in water = format: physicochemical
Protocol: Solubility of Compounds V and XV. The extent of solubility of compounds was evaluated in water.

B. catarrhalis ATCC 8176 = test: MIC broth microdilution (NCCLS), fastidious bacteria; format: cell-based, Branhamella (Moraxella) catarrhalis; conditions: Moraxella catarrhalis, ATCC8176, HTM, 5% CO2
Protocol: as §1

A. baumannii ATCC 19606 = test: MIC broth microdilution (NCCLS); format: cell-based, Acinetobacter baumannii; conditions: Acinetobacter baumannii, ATCC19606, read-out: MIC
Protocol: as §1

[7] = test system: Y. enterocolytica ATCC 23715; test: MIC broth microdilution (NCCLS); format: cell-based, Yersinia enterocolytica; conditions: Yersinia, ATCC23715, read-out: MIC
Protocol: as §1

[8] = Staphylococcus aureus, MRSA, read-out: MIC
[9] = ATCC25285, B. fragilis ATCC 25285, Wilkins Chalgren broth, anaerobic, 48 hours, read-out: MIC

MIC [1] [ng/mL]	MIC (B. fragilis ATCC 25285; [9]) [µg/mL]	SMILES	MIC (E. faecium ATCC 35667) [µg/mL]	MIC (E. faecalis ATCC 29212) [µg/mL]	MIC (S. aureus ATCC 29213) [µg/mL]	MIC (S. aureus MRSA COL; [8]) [µg/mL]	MIC [2] [µg/mL]	MIC [3] [µg/mL]	MIC (E. coli ATCC 25922 [4]) [µg/mL]	MBC [5] [µg/mL]	MBC (E. coli ATCC 25922 [6]) [µg/mL]	MIC (M. smegmatis ATCC 19420) [µg/mL]	MIC (MRSA strain Sa249c) [µg/mL]	MIC (MRSA strain Sa211c) [µg/mL]	MIC (MRSA strain Sa228c) [µg/mL]	MIC (MRSA strain Sa224c) [µg/mL]	MIC (MRSA strain Sa234c) [µg/mL]	MIC (MRSA strain Sa220c) [µg/mL]	MIC (MRSA strain Sa212c) [µg/mL]	MIC (MRSA strain Sa248c) [µg/mL]	other results
1 (≈ 0.00309 µM)	4 (≈ 12.4 µM)	O=C(N[C@H](CO)[C@H](O)c1ccc([N+](=O)[O-])cc1)C(Cl)Cl [Chloramphenicol]	8 (≈ 24.8 µM)	8 (≈ 24.8 µM)	16 (≈ 49.5 µM)	8 (≈ 24.8 µM)	8 (≈ 24.8 µM)	4 to 8 (≈ 12.4 to 24.8 µM)	4 (≈ 12.4 µM)	16 to 32 (≈ 49.5 to 99 µM)	16 (≈ 49.5 µM)	–	–	–	–	–	–	–	–	–	MIC (C. jejuni ATCC 33291; C. jejuni ATCC 33291, MHBCA with 2% laked horse blood, 5% CO2, read-out: MIC): 4 µg/mL (≈ 12.4 µM)
500 (≈ 1.02 µM)	0.5 (≈ 1.02 µM)	CN1CCN(c2cc3nc(C=Cc4ccc([N+](=O)[O-])o4)nc(Nc4ccc(O)cc4)c3cc2F)CC1 [Compound XV, 7-(4-methylpiperazino)-6-fluoro-2-[2-(5-nitro-2-furyl)vinyl]-4-(p-hydroxyanilino)-quinazoline]	8 (≈ 16.3 µM)	2 to 8 (≈ 4.08 to 16.3 µM)	2 (≈ 4.08 µM)	0.5 (≈ 1.02 µM)	1 to 2 (≈ 2.04 to 4.08 µM)	2 (≈ 4.08 µM)	–	–	–	0.25 (≈ 0.51 µM)	0.5 (≈ 1.02 µM)	2 (≈ 4.08 µM)	2 (≈ 4.08 µM)	1 (≈ 2.04 µM)	2 (≈ 4.08 µM)	0.25 (≈ 0.51 µM)	4 (≈ 8.16 µM)	0.5 (≈ 1.02 µM)	MIC (H. influenzae ATCC 49247): 2 µg/mL (≈ 4.08 µM); MIC (H. influenzae ATCC 49766): 2 µg/mL (≈ 4.08 µM); MIC (E. faecium VanA): 0.5 µg/mL (≈ 1.02 µM); MIC (MRSA strain Sa253c; multi-resistant MRSA strain Sa253c, read-out: MIC): 2 µg/mL (≈ 4.08 µM); solubility relative to Compound V (Solubility in water): 4 times; solubility (Solubility in water; read-out: solubility in water (no visible particles)): 1000 µg/mL (≈ 2040 µM); MIC (B. catarrhalis ATCC 8176): 0.5 µg/mL (≈ 1.02 µM)
–	–	C[C@@H](O)[C@H]1C(=O)N2C(C(=O)O)=C(SCCN=CN)C[C@H]12 [Imipenem]	2 (≈ 6.68 µM)	0.5 (≈ 1.67 µM)	0.015 (≈ 0.0501 µM)	16 (≈ 53.4 µM)	0.008 to 0.015 (≈ 0.0267 to 0.0501 µM)	0.03 (≈ 0.1 µM)	0.12 (≈ 0.401 µM)	0.03 to 0.06 (≈ 0.1 to 0.2 µM)	–	–	–	–	–	–	–	–	–	–	MIC (A. baumannii ATCC 19606): 16 µg/mL (≈ 53.4 µM); MIC (C. jejuni ATCC 33291): 0.125 µg/mL (≈ 0.418 µM); MIC (B. fragilis ATCC 25285; ATCC25285, 48 h): 0.125 to 0.5 µg/mL (≈ 0.418 to 1.67 µM); MIC [7]: 0.5 µg/mL (≈ 1.67 µM)

SMILES	MIC [1] [ng/mL]	MIC (B. fragilis ATCC 25285; [9]) [µg/mL]	MIC (E. faecium ATCC 35667) [µg/mL]	MIC (E. faecalis ATCC 29212) [µg/mL]	MIC (S. aureus ATCC 29213) [µg/mL]	MIC (S. aureus MRSA COL; [8]) [µg/mL]	MIC [2] [µg/mL]	MIC [3] [µg/mL]	MIC (E. coli ATCC 25922 [4]) [µg/mL]	MBC [5] [µg/mL]	MBC (E. coli ATCC 25922 [6]) [µg/mL]	MIC (M. smegmatis ATCC 19420) [µg/mL]	MIC (MRSA strain Sa249c) [µg/mL]	MIC (MRSA strain Sa211c) [µg/mL]	MIC (MRSA strain Sa228c) [µg/mL]	MIC (MRSA strain Sa224c) [µg/mL]	MIC (MRSA strain Sa234c) [µg/mL]	MIC (MRSA strain Sa220c) [µg/mL]	MIC (MRSA strain Sa212c) [µg/mL]	MIC (MRSA strain Sa248c) [µg/mL]	other results
CCn1cc(C(=O)O)c(=O)c2cc(F)c(N3CCNCC3)cc21 [Norfloxacin]	8 (≈ 0.0251 µM)	–	16 (≈ 50.1 µM)	4 (≈ 12.5 µM)	1 (≈ 3.13 µM)	0.5 to 1 (≈ 1.57 to 3.13 µM)	0.5 (≈ 1.57 µM)	2 (≈ 6.26 µM)	0.03 (≈ 0.0939 µM)	4 (≈ 12.5 µM)	0.06 (≈ 0.188 µM)	2 (≈ 6.26 µM)	32 (≈ 100 µM)	> 32	> 32	> 32	> 32	> 32	> 32	32 (≈ 100 µM)	MIC (S. aureus MRSA COL): 1 µg/mL (≈ 3.13 µM); MIC (MRSA strain Sa253c; MRSA): > 128 µg/mL
